Here are results for 16 molecules from paper PMC10893357 (Viruses, 2024).

Assay [1] deals with T1, SARS-CoV-2 3CL^pro (Severe acute respiratory syndrome coronavirus 2, UniProt P0DTD1). Nature of the assay: SARS-CoV-2 3CLpro enzymatic inhibition assay (FRET peptide substrate). Type of assay: biochemical.
In assay [2] the target is T1, SARS-CoV-2 3CL^pro. Kind of assay: Kinetic parameters of 3CLpro reaction with inhibitor. Type of assay: biochemical. Conditions: maximum reaction rate of 3CLpro with inhibitor at its IC50.

“Also recorded” adds a separate entry of the source.

The IC50 is the concentration needed to halve the response being measured. Low values mean inhibition by little substance, high ones a need for much substance. In the case of `CC(=O)C1=C(O)C=C2Oc3c(-c4csc(N/N=C/c5ccsc5)n4)c(O)c(C)c(O)c3[C@@]2(C)C1=O` [(+)-3a], 51 ± 6.33 µM corresponded to half-maximal inhibition on SARS-CoV-2 3CL^pro [1] (IC50).
Turning to `CC(=O)C1=C(O)C=C2Oc3c(-c4csc(N/N=C/c5ccc(Br)s5)n4)c(O)c(C)c(O)c3[C@]2(C)C1=O` [(−)-3e], at SARS-CoV-2 3CL^pro [1], the IC50 was 85.8 ± 10.1 µM and the “activity against 3CLpro (in words)” value is listed as “almost three times less effectively”.
For `CC(=O)C1=C(O)C=C2Oc3c(-c4csc(N/N=C/c5ccc(C)s5)n4)c(O)c(C)c(O)c3[C@@]2(C)C1=O` [(+)-3d], on SARS-CoV-2 3CL^pro [1], the IC50 turned out to be 40.7 ± 5.11 µM and the “activity against 3CLpro (in words)” value is “moderately inhibited the protease”.
Molecule `CC(=O)C1=C(O)C=C2Oc3c(-c4csc(N/N=C/c5cccs5)n4)c(O)c(C)c(O)c3[C@@]2(C)C1=O` [(+)-3b] displayed a 50% inhibitory concentration (IC50) on SARS-CoV-2 3CL^pro [1] of 49.7 ± 6.12 µM.
As for `CC(=O)C1=C(O)C=C2Oc3c(-c4csc(N/N=C/c5ccsc5)n4)c(O)c(C)c(O)c3[C@]2(C)C1=O` [(−)-3a], the IC50 against SARS-CoV-2 3CL^pro [1] was 41.6 ± 4.97 µM.
Same read-out and setting: the same measure for `CC(=O)C1=C(O)C=C2Oc3c(-c4csc(N/N=C/c5cc(Br)cs5)n4)c(O)c(C)c(O)c3[C@]2(C)C1=O` [(−)-3f]: 72.8 ± 9.55 µM.
Regarding `CC(=O)C1=C(O)C=C2Oc3c(-c4csc(N/N=C/c5ccc([N+](=O)[O-])s5)n4)c(O)c(C)c(O)c3[C@@]2(C)C1=O` [(+)-3g], on SARS-CoV-2 3CL^pro [1], the IC50 was > 200 µM and the “activity against 3CLpro (in words)” value is recorded as “showed no activity at all; also recorded: did not show this activity”.
In turn, `CC(=O)C1=C(O)C=C2Oc3c(-c4csc(N/N=C/c5sccc5C)n4)c(O)c(C)c(O)c3[C@]2(C)C1=O` [(−)-3c] gave a concentration for half-maximal inhibition (IC50) at SARS-CoV-2 3CL^pro [1] of 48 ± 6.21 µM.
For `CC(=O)C1=C(O)C=C2Oc3c(C(C)=O)c(O)c(C)c(O)c3[C@]2(C)C1=O` [(−)-1, (S)-(−)-Usnic acid, reference compound], the IC50 at SARS-CoV-2 3CL^pro [1] was > 200 µM.
In turn, `CC(=O)C1=C(O)C=C2Oc3c(-c4csc(N/N=C/c5sccc5C)n4)c(O)c(C)c(O)c3[C@@]2(C)C1=O` [(+)-3c] showed a half-maximal inhibitory concentration (IC50) against SARS-CoV-2 3CL^pro [1] of 34 ± 4.45 µM.
As to `CC(=O)C1=C(O)C=C2Oc3c(-c4csc(N/N=C/c5ccc([N+](=O)[O-])s5)n4)c(O)c(C)c(O)c3[C@]2(C)C1=O` [(−)-3g], at SARS-CoV-2 3CL^pro [1], the IC50 is > 200 µM and the “activity against 3CLpro (in words)” value is listed as “showed no activity at all”.
As to `CC(=O)C1=C(O)C=C2Oc3c(C(C)=O)c(O)c(C)c(O)c3[C@@]2(C)C1=O` [(+)-1, (R)-(+)-Usnic acid, reference compound], at SARS-CoV-2 3CL^pro [1], the IC50 is > 200 µM and the “activity against 3CLpro (in words)” value was “does not inhibit 3CL^pro”.
For `CC(=O)C1=C(O)C=C2Oc3c(-c4csc(N/N=C/c5cc(Br)cs5)n4)c(O)c(C)c(O)c3[C@@]2(C)C1=O` [(+)-3f], on SARS-CoV-2 3CL^pro [1], the IC50 was determined as 50.2 ± 6.75 µM.
`CC(=O)C1=C(O)C=C2Oc3c(-c4csc(N/N=C/c5ccc(C)s5)n4)c(O)c(C)c(O)c3[C@]2(C)C1=O` [(−)-3d]: at SARS-CoV-2 3CL^pro [1], the half-maximal inhibitory concentration (IC50) amounted to 41 ± 5.89 µM and the “activity against 3CLpro (in words)” value is “moderately inhibited the protease”.
The term Vmax denotes the top rate of the reaction or transport when substrate is in excess. On to `CC(=O)C1=C(O)C=C2Oc3c(-c4csc(N/N=C/c5ccc(Br)s5)n4)c(O)c(C)c(O)c3[C@@]2(C)C1=O` [(+)-3e], for which, on SARS-CoV-2 3CL^pro [1], it took 28.2 ± 1.41 µM to reach half-maximal inhibition (IC50) and the “activity against 3CLpro (in words)” value is recorded as “the highest but not strong activity”. The maximal velocity (Vmax) on SARS-CoV-2 3CL^pro [2] was found to be 334.26 ± 39.08 nM/s.
At SARS-CoV-2 3CL^pro [1], `CC(=O)C1=C(O)C=C2Oc3c(-c4csc(N/N=C/c5cccs5)n4)c(O)c(C)c(O)c3[C@]2(C)C1=O` [(−)-3b] returned a concentration for half-maximal inhibition (IC50) of 40.4 ± 5.65 µM.
